Test results published in ChEMBL document CHEMBL1157577.

Target: T1, Progesterone receptor (Homo sapiens) (UniProt P06401)
T1 sequence (whole entry): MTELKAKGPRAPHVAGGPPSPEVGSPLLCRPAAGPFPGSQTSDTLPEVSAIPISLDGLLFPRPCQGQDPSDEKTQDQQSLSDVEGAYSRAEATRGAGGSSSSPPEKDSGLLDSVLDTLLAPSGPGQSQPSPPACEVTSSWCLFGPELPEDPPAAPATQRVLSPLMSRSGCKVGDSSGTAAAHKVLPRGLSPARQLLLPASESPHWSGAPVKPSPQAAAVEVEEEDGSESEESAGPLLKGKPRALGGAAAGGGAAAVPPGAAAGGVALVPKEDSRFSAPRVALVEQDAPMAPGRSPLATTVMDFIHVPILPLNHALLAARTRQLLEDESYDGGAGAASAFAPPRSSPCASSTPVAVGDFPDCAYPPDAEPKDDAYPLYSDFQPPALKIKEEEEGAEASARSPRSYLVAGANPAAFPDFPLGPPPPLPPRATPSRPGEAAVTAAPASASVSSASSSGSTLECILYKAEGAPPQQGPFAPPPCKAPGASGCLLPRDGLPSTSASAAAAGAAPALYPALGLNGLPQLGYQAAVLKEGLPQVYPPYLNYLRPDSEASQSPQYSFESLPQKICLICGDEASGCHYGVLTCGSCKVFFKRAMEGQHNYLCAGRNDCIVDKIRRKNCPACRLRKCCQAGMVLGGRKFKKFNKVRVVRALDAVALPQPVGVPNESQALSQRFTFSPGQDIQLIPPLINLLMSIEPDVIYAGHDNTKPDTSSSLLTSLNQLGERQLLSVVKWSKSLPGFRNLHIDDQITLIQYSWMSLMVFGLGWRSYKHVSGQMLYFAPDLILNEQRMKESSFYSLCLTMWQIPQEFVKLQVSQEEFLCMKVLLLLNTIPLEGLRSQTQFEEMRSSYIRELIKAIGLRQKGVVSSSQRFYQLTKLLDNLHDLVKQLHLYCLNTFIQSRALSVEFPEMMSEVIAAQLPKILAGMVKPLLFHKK
Assay: Antiprogestagenic activity at progesterone receptor in human T47D cells assessed as inhibition of progesterone-induced alkaline phosphatase activity relative to mifepristone
Format: cell-based
Design: scale not given: the % may be the effect or the level left

Structure (SMILES)	Activity [%]
CC#C[C@]1(O)CC[C@H]2[C@@H]3CCC4=CC(=O)CCC4=C3[C@@H](c3ccc(N(C)CCCCCC(=O)O)cc3)C[C@@]21C	0.11
CC#C[C@]1(O)CC[C@H]2[C@@H]3CCC4=CC(=O)CCC4=C3[C@@H](c3ccc(N(C)CCC(=O)O)cc3)C[C@@]21C	0.15
